The target of this assay is Tyrosine-protein kinase BTK (Homo sapiens, UniProt Q06187). The assay is described as follows: In Vitro BTK Kinase Assay. Here is the method:
The purpose of the BTK in vitro assay is to determine compound potency against BTK through the measurement of IC50. […] For a typical assay, a 24 μL aliquot of a ATP/peptide master mix (final concentration; ATP 10 μM, polyGAT 100 nM) in kinase buffer (10 mM Tris-HCl pH 7.5, 10 mM MgCl2, 200 μM Na3PO4, 5 mM DTT, 0.01% Triton X-100, and 0.2 mg/ml casein) is added to each well. […] The assay is incubated for 30 minutes before being stopped with […] of a 50 mM EDTA solution. […] The plate is covered and incubated for 45 minutes at room temperature.

Structures are written as SMILES.

Sequence of Tyrosine-protein kinase BTK (Q06187 whole entry): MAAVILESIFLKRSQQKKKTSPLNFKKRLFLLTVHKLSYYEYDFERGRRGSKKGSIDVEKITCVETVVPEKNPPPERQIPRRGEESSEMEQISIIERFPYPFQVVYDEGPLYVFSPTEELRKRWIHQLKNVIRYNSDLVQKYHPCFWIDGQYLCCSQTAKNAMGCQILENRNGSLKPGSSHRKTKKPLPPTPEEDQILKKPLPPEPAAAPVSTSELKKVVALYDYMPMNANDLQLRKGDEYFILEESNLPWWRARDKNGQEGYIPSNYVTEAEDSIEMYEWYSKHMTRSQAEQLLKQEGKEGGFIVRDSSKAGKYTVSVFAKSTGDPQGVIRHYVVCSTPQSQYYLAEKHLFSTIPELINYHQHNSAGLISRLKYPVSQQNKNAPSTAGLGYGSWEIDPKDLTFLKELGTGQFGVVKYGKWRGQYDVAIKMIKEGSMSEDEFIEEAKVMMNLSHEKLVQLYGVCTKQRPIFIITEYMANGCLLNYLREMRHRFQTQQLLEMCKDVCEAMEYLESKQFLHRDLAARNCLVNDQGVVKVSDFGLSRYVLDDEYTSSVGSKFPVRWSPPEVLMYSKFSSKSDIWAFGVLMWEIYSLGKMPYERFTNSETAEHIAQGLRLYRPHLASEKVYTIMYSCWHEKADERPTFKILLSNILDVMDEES

`CC(C)(C)c1nc(C(=O)NCc2cc(F)c(-c3ccnc(NC(=O)C4CC4)c3)cc2C(F)(F)F)no1` [US12240838, Compound 62] yielded an IC50 of under 1 nM.

The values are drawn from BindingDB's records for patent US12240838 (Biogen Ma, 2025).
